Source: the supplement of paper PMC10307832

Columns and labels:
Experiment in all cases: relative viability (nuclei count vs DMSO), 5 days (fraction); higher = more cells survive
[1] = compound: CCn1c(-c2nonc2N)nc2c(C#CC(C)(C)O)ncc(OC[C@H]3CCCNC3)c21 + COc1cc2c(Oc3ccc(NC(=O)C4(C(=O)Nc5ccc(F)cc5)CC4)cc3F)ccnc2cc1OCCCN1CCOCC1 [Foretinib] (partner 0.25 µM)
Procedure, shortened: (§1)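 Relative viability was taken as the ratio of nuclei in treated wells to nuclei in vehicle wells. Lung cancer cell lines in 1536-well plates received compounds by pin tool one day after seeding, either one drug alone or a fixed anchor-drug dose plus five library-drug doses (not always all listed) in √10 steps. Nuclei were counted on 4× images after 5 days of treatment, and values are medians of duplicate plates.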

[2] = compound: CCn1c(-c2nonc2N)nc2c(C#CC(C)(C)O)ncc(OC[C@H]3CCCNC3)c21 + CC(=O)Nc1cccc(-n2c(=O)n(C3CC3)c(=O)c3c(Nc4ccc(I)cc4F)n(C)c(=O)c(C)c32)c1 [Trametinib] (partner 0.02 µM)
Procedure, shortened: as §1

BAM7 + Dasatinib = compound: CCOC1=CC=CC=C1N=NC2=C(NN(C2=O)C3=NC(=CS3)C4=CC=CC=C4)C [BAM7] + Cc1nc(Nc2ncc(C(=O)Nc3c(C)cccc3Cl)s2)cc(N2CCN(CCO)CC2)n1 [Dasatinib] (partner 0.075 µM)
Procedure, shortened: as §1

BAM7 + Bortezomib = compound: CCOC1=CC=CC=C1N=NC2=C(NN(C2=O)C3=NC(=CS3)C4=CC=CC=C4)C [BAM7] + CC(C)C[C@H](NC(=O)[C@H](Cc1ccccc1)NC(=O)c1cnccn1)B(O)O [Bortezomib] (partner 0.002 µM)
Procedure, shortened: as §1

Cell Line | relative viability ([1]; first compound 0.01 µM) | relative viability ([1]; first compound 0.03162 µM) | relative viability ([1]; first compound 0.1 µM) | relative viability ([1]; first compound 0.3162 µM) | relative viability ([1]; first compound 1 µM) | relative viability ([2]; first compound 0.01 µM) | relative viability ([2]; first compound 0.03162 µM) | relative viability ([2]; first compound 0.1 µM) | relative viability ([2]; first compound 0.3162 µM) | relative viability ([2]; first compound 1 µM) | relative viability (BAM7 + Dasatinib; first compound 0.5 µM) | relative viability (BAM7 + Dasatinib; first compound 5 µM) | relative viability (BAM7 + Dasatinib; first compound 15.81 µM) | relative viability (BAM7 + Dasatinib; first compound 50 µM) | relative viability (BAM7 + Bortezomib; first compound 0.5 µM) | relative viability (BAM7 + Bortezomib; first compound 5 µM) | relative viability (BAM7 + Bortezomib; first compound 15.81 µM) | relative viability (BAM7 + Bortezomib; first compound 50 µM)
NCI-H2126 | 1.1 | 1.16 | 1.25 | 1.11 | 1.2 | 0.568 | 0.566 | 0.65 | 0.578 | 0.61 | 0.584 | 0.484 | 0.436 | 0.526 | 1.07 | 1 | 1.08 | 1.08
EMC-BAC-2 | 1.06 | 1.02 | 0.952 | 0.973 | 1.01 | 0.864 | – | 1.08 | 0.848 | 0.913 | 0.301 | 0.366 | 0.331 | 0.394 | 1.04 | 1.16 | 1.11 | 1.17
NCI-H1993 | 0.693 | 0.835 | 0.785 | 0.733 | 0.714 | 0.688 | 0.493 | 0.555 | 0.464 | 0.507 | 0.492 | 0.541 | 0.502 | 0.575 | 0.843 | 0.836 | 0.472 | 1.09
NCI-H520 | 0.743 | 0.902 | 0.704 | 0.524 | 0.392 | 0.645 | 0.789 | 0.574 | 0.322 | 0.2 | 0.184 | 0.171 | 0.207 | 0.245 | 0.625 | 0.75 | 0.441 | 0.708
NCI-H647 | 1.26 | 1.1 | 1.14 | 1.16 | 1.22 | 0.481 | 0.493 | 0.475 | 0.364 | 0.323 | 0.175 | 0.193 | 0.203 | 0.248 | 1.11 | 0.936 | 1.03 | 1.1
SK-LU-1 | 0.754 | 0.896 | 0.737 | 0.816 | 0.749 | 0.527 | 0.495 | 0.458 | 0.443 | 0.441 | 0.172 | 0.18 | 0.191 | 0.168 | 1.18 | 1.46 | 1.3 | 1.39
ChaGo-K-1 | 0.802 | 0.849 | 0.852 | 0.911 | 0.896 | 0.843 | 0.997 | 0.879 | 0.814 | 0.78 | 0.641 | 0.523 | 0.507 | 0.726 | 0.861 | 1.09 | 1.14 | 0.969
NCI-H1650 | 1.07 | 1.01 | 1.3 | 0.933 | 1.02 | 0.548 | 0.582 | 0.559 | 0.51 | 0.551 | 0.338 | 0.278 | 0.277 | 0.337 | 0.235 | 0.297 | 0.202 | 0.199
NCI-H2009 | 1.22 | 1.21 | 1.31 | 1.22 | 1.22 | 0.268 | 0.274 | 0.245 | 0.301 | 0.259 | 0.291 | 0.283 | 0.265 | 0.275 | 0.976 | 1.29 | 0.926 | 0.971
LOU-NH91 | 0.929 | 0.962 | 0.964 | 0.861 | 0.907 | 0.795 | 0.788 | 0.802 | 0.695 | 0.659 | 0.495 | 0.658 | 0.535 | 0.552 | 0.476 | 0.508 | 0.546 | 0.486
NCI-H2405 | 1.06 | 1.05 | 0.948 | 1.03 | 1.05 | 0.664 | 0.683 | 0.646 | 0.598 | 0.604 | 0.195 | 0.201 | 0.211 | 0.243 | 1.02 | 1.04 | 1.01 | 0.991
LCLC-97TM1 | 1.03 | 0.91 | 1.01 | 0.877 | 0.874 | 0.172 | 0.232 | 0.216 | 0.191 | 0.198 | 1.05 | 1.04 | 0.881 | 0.945 | 0.721 | 0.608 | 0.898 | 0.76
NCI-H596 | 0.895 | 1 | 0.744 | 0.84 | 0.639 | 0.797 | – | 0.821 | 0.785 | 0.878 | 0.621 | 0.644 | 0.578 | 0.632 | 1.01 | 1.13 | 0.889 | 1.25
NCI-H727 | 0.833 | 1.22 | 0.693 | 0.877 | 1.08 | 0.391 | 0.359 | 0.336 | 0.347 | 0.371 | 0.351 | – | 0.469 | 0.312 | 0.832 | 1.14 | 0.916 | 0.739
H3255 | 0.833 | 0.826 | 0.891 | 0.875 | 0.777 | 0.608 | 0.614 | 0.576 | 0.427 | 0.532 | 0.397 | 0.34 | 0.483 | 0.788 | 0.674 | 0.798 | 0.7 | 0.624
